Laboratory results as given in PMC11864979, “First-in-class ultralong-target-residence-time p38α inhibitors as a mitosis-targeted therapy for colorectal cancer” (Nature Cancer, 2025).
Several values for one entry are separate records, joined by “and”; a condition that tells them apart may be missing. Equal entries are not always repeated. Where two headings read alike, the source gives them in different places.

Assays:
KAP organoids = assay: cell viability in KAP organoids (CellTiter-Glo); type: cell-based, mouse; details: for viability at 1 µM: Mus musculus
Method: (§1) For in vitro treatment studies, organoids were mechanically dissociated and digested using TrypLE supplemented with 100 µg ml^−1 DNaseI and 10.5 µM Y-27632 dihydrochloride (Invitrogen) at 37 °C. A total of 1,000–2,000 single cells were plated per well in white 96-well plates (Greiner) in culture medium containing 10% GFR Matrigel or Cultrex BME. The treatment with doxycycline (5 µg ml^−1), pharmacological inhibitors or corresponding volumes of DMSO was started 24 h after plating. Doxycycline was obtained from Sigma-Aldrich. […] Cell viability was measured by means of CellTiter-Glo 3D or CellTiter-Glo 2.0 reagent (Promega) according to the manufacturers’ instructions and the Infinite M Plex reader (Tecan, i-control version 3.9.1 software). Results were normalized to vehicle (DMSO) or to shNC. For cell-doubling assays, the cell number was quantified at the corresponding time points using Guava EasyCyte flow cytometer (Luminex, CytoSoft v5.2 software).

PDO8 = assay: cell viability in patient-derived CRC organoids PDO8; type: cell-based, human
Method: as §1

PDO11 = assay: cell viability in patient-derived CRC organoids PDO11; type: cell-based, human
Method: as §1

PDO14 = assay: cell viability in patient-derived CRC organoids PDO14; type: cell-based, human
Method: as §1

PDO15 = assay: cell viability in patient-derived CRC organoids PDO15; type: cell-based, human
Method: as §1

COLO 205 = assay: cell viability in human CRC cell line COLO 205; type: cell-based; details: 4 d
Method: To generate KAP^2D cells, KAP organoids were isolated from Matrigel, fragmented by mechanical dissociation and plated without any extracellular matrix on common cell culture dishes. Phoenix-Eco packaging cells (CRL-3214), HCT-15 (CCL-225), HCT 116 (CCL-247), COLO 205 (CCL-222), LS 174T (CL-188), RKO (CRL-2577) and HT-29 (HTB-38) were obtained from the American Type Culture Collection. The cells were cultured at 37 °C and 7% CO2 with RPMI (KAP^2D cells) or DMEM (other cell lines), supplemented with 10% FBS and penicillin–streptomycin. KAP^2D cells were authenticated using PCR (Kras locus and Trp53 locus). Phoenix-Eco packaging cells and HCT-15, HCT 116, COLO 205, LS 174T, RKO and HT-29 cells were authenticated by the provider using short tandem repeat profiling. No commonly misidentified cell lines were used. Mycoplasma contamination was excluded by a PCR-based analysis.
as §1

LS 174T = assay: cell viability in human CRC cell line LS 174T; type: cell-based; details: 4 d

## O=C(NCCN1CCOCC1)c1ccc2c(c1)C(=O)c1ccc(Nc3ccc(F)c(NC(=O)c4ccccc4)c3)cc1CC2 [Compound 1639]
KAP organoids; Fig. 1g, 0.5 µM, replicates
  Cell viability (%): 93.61% and 119.78% and 82.99%
KAP organoids; Fig. 1g, 1 µM, replicates
  Cell viability (%): 54.56% and 39.62%
KAP organoids; Fig. 2b, compound screen, replicates
  Cell viability (%): 45.26% and 35.57% and 35.59%
KAP organoids; Fig. 2f, 0,5 µM, replicates, 5 µM
  Cell viability (%): 109.96% and 85.33% and 68.50%
KAP organoids; Fig. 2f, 0,25 µM, replicates, 25 µM
  Cell viability (%): 115.00% and 101.97% and 82.44%
KAP organoids; Fig. 2f, 1 µM, replicates
  Cell viability (%): 55.27% and 54.06%
KAP organoids; Fig. 1g, 1 µM, replicates, read-out: Cell viability (%)
  viability at 1 µM: 51.8%
KAP organoids; Fig. 2f, 1 µM, replicates, read-out: Cell viability (%)
  viability at 1 µM: 72.9%
KAP organoids; drug screen in KAP organoids, 1 µM concentration, n = 3, mean, read-out: Cell viability (% of DMSO)
  viability at 1 µM: 38.8%
KAP organoids; viability assay
  induction of cell death in KAP organoids (in words): moderate but significant induction of cell death
PDO8; Homo sapiens, 96 h, PDO8, 0.5 µM, 4 d
  viability at 0.5 µM: 82.7%
PDO8; PDO8, 0.5 µM, 4 d, 0.5 µM
  Cell viability (%): 82.90% and 74.01%
PDO8; PDO8, 1 µM, 4 days, 1 µM
  Cell viability (%): 84.53% and 69.94% and 45.12%
PDO11; PDO11, 0.5 µM, 4 d, 0.5 µM
  Cell viability (%): 109.25% and 122.99% and 99.10%
PDO11; PDO11, 1 µM, 4 days, 1 µM
  Cell viability (%): 102.62% and 119.73% and 93.65%
PDO14; Homo sapiens, 96 h, PDO14, 0.5 µM, 4 d, read-out: Cell viability (%)
  viability at 0.5 µM: 101%
PDO14; Homo sapiens, 96 h, PDO14, 1 µM, 4 days, read-out: Cell viability (%)
  viability at 1 µM: 105%
PDO14; PDO14, 0.5 µM, 4 d, 0.5 µM
  Cell viability (%): 102.33% and 109.28%
PDO14; PDO14, 1 µM, 4 days, 1 µM
  Cell viability (%): 95.42% and 93.44%
PDO15; Homo sapiens, 96 h, PDO15, 0.5 µM, 4 d, read-out: Cell viability (%)
  viability at 0.5 µM: 101%
PDO15; Homo sapiens, 96 h, PDO15, 1 µM, 4 days, read-out: Cell viability (%)
  viability at 1 µM: 87.7%
PDO15; PDO15, 0.5 µM, 4 d, 0.5 µM
  Cell viability (%): 102.64% and 92.86%
PDO15; PDO15, 1 µM, 4 days, 1 µM
  Cell viability (%): 91.79% and 86.01%
COLO 205; 0.0137 µM
  COLO 205 Cell viability (%): 96.89% and 92.36% and 102.13% and 110.53% and 105.25%
COLO 205; 0.0412 µM
  COLO 205 Cell viability (%): 99.77% and 107.60% and 109.36% and 77.71% and 88.84% and 87.27%
COLO 205; 0.1235 µM
  COLO 205 Cell viability (%): 93.71% and 107.24% and 99.74% and 85.52% and 87.44% and 87.93%
COLO 205; 0.3704 µM
  COLO 205 Cell viability (%): 100.71% and 94.45% and 83.28% and 88.21% and 85.79%
COLO 205; 1.1111 µM
  COLO 205 Cell viability (%): 89.26% and 96.25% and 98.03% and 68.45% and 75.66% and 76.80%
COLO 205; Homo sapiens, COLO 205, 96 h, 0.0137 µM
  viability at 0.0137 µM: 98.5%
COLO 205; Homo sapiens, COLO 205, 96 h, 0.3704 µM
  viability at 0.3704 µM: 92.5%
LS 174T; 0.0137 µM
  LS 174T Cell viability (%): 96.96% and 98.13% and 93.47% and 92.87% and 103.70%
LS 174T; 0.0412 µM
  LS 174T Cell viability (%): 88.17% and 87.93% and 84.72% and 87.30% and 86.06%
LS 174T; 0.1235 µM
  LS 174T Cell viability (%): 73.32% and 74.11% and 80.93% and 80.83% and 84.53%
LS 174T; 0.3704 µM
  LS 174T Cell viability (%): 72.52% and 70.49% and 77.50% and 75.15% and 72.31%
LS 174T; 1.1111 µM
  LS 174T Cell viability (%): 73.18% and 76.23% and 79.82% and 74.44% and 73.58%
LS 174T; 3.3333 µM
  LS 174T Cell viability (%): 64.63% and 65.58% and 65.84% and 62.28% and 62.47%
LS 174T; 10.0000 µM
  LS 174T Cell viability (%): 22.96% and 24.63% and 23.18% and 23.96% and 22.77%
LS 174T; Homo sapiens, LS174T, 96 h, 0.0137 µM, read-out: LS 174T Cell viability (%)
  viability at 0.0137 µM: 95%
LS 174T; Homo sapiens, LS174T, 96 h, 0.0412 µM, read-out: LS 174T Cell viability (%)
  viability at 0.0412 µM: 81.8%
LS 174T; Homo sapiens, LS174T, 96 h, 0.1235 µM, read-out: LS 174T Cell viability (%)
  viability at 0.1235 µM: 73.7%
LS 174T; Homo sapiens, LS174T, 96 h, 0.3704 µM, read-out: LS 174T Cell viability (%)
  viability at 0.3704 µM: 74.4%
